Laboratory results as given in ChEMBL document CHEMBL3217627, “Designing glucokinase activators with reduced hypoglycemia risk: discovery of N,N-dimethyl-5-(2-methyl-6-((5-methylpyrazin-2-yl)-carbamoyl)benzofuran-4-yloxy)pyrimidine-2-carboxamide as a clinical candidate for the treatment of type 2 diabetes mellitus” (Medchemcomm, 2011).
Converted amounts (≈) assume the structure as drawn. The source made the active and inactive calls. No cut-off for these calls is given here.

What was measured:
Hexokinase-4 [1] = molecular target: T1, Hexokinase-4 (Rattus norvegicus, UniProt P17712); assay: Activation of rat glucokinase
T1 sequence (P17712 whole entry): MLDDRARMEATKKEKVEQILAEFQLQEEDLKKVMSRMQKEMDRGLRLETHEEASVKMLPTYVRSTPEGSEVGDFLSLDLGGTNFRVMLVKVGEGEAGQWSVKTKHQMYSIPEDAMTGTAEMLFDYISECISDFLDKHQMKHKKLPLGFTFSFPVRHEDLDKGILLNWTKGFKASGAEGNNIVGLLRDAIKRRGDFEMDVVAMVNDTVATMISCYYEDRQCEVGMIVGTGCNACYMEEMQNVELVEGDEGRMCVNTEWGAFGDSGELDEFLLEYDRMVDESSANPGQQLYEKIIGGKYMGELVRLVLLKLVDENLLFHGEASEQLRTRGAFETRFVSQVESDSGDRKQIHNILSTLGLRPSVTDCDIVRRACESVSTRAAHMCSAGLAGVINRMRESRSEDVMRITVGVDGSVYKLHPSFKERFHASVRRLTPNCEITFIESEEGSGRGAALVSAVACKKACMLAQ

Rattus norvegicus = assay: Antidiabetic activity in Sprague-Dawley rat assessed as reduction of post-prandial glucose excursion at 3 to 100 mg/kg, po administered for 60 mins followed by glucose challenge measured up to 120 mins by OGTT; format: functional, organism-based
[2] = Passive permeability across RRCK cells; format: ADME, cell-based, Canis lupus familiaris, MDCKII-LE; details: dog, MDCK; read-out: permeability
Hexokinase-4 [3] = molecular target: T2, Hexokinase-4 (Homo sapiens, UniProt P35557)
T2 sequence (P35557 whole entry): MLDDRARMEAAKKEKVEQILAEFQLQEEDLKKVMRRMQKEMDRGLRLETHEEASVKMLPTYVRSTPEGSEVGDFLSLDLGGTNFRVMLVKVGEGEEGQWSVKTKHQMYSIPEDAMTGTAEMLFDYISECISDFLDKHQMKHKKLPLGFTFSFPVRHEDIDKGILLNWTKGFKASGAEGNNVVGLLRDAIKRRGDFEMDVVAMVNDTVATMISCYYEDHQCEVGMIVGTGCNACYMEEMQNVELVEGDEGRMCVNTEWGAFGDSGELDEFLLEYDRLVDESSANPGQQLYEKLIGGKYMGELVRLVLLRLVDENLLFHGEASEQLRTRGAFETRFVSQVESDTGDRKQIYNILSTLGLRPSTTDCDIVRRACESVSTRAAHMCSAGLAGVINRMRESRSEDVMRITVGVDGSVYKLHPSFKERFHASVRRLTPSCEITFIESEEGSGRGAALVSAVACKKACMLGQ
Description: Activation of recombinant human glucokinase assessed as formation of glucose-6-phosphate by G6PDH/NADP coupled assay

[4] = Intrinsic clearance in human liver microsomes; format: ADME; details: read-out: CLH
[5] = Kinetic solubility of the compound; format: physicochemical; details: read-out: Kinetic_solubility
hERG (KCNH2) = hERG (KCNH2) (Homo sapiens, UniProt Q12809); assay: Inhibition of dofetilide binding to human ERG at 10 uM relative to control; details: probe dofetilide
[6] = molecular target: Voltage-gated inwardly rectifying potassium channel KCNH2 (Homo sapiens, UniProt Q12809); assay: Inhibition of dofetilide binding to human ERG
[7] = Selectivity ratio of EC50 for rat glucokinase to EC50 for human glucokinase

Sequence of hERG (KCNH2) (Q12809 whole entry): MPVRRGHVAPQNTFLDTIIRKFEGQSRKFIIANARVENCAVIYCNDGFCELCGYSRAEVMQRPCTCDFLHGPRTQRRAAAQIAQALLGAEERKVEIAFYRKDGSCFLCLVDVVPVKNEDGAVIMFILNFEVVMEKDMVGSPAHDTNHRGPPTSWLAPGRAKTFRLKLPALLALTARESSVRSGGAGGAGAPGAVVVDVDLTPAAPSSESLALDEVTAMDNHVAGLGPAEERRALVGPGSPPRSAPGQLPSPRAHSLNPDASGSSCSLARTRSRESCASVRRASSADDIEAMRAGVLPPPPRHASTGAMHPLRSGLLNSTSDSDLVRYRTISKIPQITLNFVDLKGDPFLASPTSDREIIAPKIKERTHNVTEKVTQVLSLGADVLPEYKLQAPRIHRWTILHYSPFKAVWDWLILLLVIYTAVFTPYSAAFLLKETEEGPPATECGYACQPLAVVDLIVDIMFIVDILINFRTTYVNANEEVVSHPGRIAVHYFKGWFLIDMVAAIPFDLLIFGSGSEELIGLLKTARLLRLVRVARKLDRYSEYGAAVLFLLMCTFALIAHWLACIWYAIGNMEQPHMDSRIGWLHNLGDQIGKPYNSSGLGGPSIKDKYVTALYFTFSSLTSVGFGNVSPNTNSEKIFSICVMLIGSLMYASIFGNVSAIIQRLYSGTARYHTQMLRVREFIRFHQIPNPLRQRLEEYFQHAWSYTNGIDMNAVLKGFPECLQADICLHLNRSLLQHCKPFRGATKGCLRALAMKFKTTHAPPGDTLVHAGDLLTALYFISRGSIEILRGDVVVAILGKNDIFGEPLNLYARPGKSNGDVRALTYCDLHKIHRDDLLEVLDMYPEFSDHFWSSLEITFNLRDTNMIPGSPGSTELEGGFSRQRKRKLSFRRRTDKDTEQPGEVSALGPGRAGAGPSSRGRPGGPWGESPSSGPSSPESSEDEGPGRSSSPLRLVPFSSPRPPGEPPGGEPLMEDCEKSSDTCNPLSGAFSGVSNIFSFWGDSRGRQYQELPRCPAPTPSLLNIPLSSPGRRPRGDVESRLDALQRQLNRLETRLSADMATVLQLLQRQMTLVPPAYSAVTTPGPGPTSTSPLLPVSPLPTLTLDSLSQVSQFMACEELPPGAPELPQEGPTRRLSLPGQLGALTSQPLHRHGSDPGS
Sequence of Voltage-gated inwardly rectifying potassium channel KCNH2 (Q12809 whole entry): as above

| Structure (SMILES) | EC50 (Hexokinase-4 [1]) | Papp [2] | EC50 (Hexokinase-4 [3]) | CLint scaled [4] | solubility kinetic [5] | Ratio EC50 [7] | Activity (Rattus norvegicus) | inhibition at 10 µM (hERG (KCNH2)) | IC50 [6] |
| --- | --- | --- | --- | --- | --- | --- | --- | --- | --- |
| CS(=O)(=O)c1ccc([C@@H](CC2CCCC2)C(=O)Nc2nccs2)cc1 [Ro-281675] | 235 nM | – | – | – | – | – | – | – | – |
| CNC(=O)c1cnc(Oc2cc(C(=O)Nc3cnc(C)cn3)cc3oc(C)cc23)cn1 | – | 20.9 ×10⁻⁶ cm/s | > 5000 nM | 10.1 mL/min/kg | – | – | – | 0% | – |
| Cc1cc2c(Oc3cnc(C(=O)N(C)C)cn3)cc(C(=O)Nc3ccn(C)n3)cc2o1 | – | 15.4 ×10⁻⁶ cm/s | 331 nM | < 8.2 mL/min/kg | 540 µM (≈ 227 µg/mL) | – | – | 8% | – |
| Cc1cnc(NC(=O)c2cc(Oc3ccc(S(C)(=O)=O)cc3)c3cc(C)oc3c2)cn1 | – | 7.6 ×10⁻⁶ cm/s | 870 nM | 13 mL/min/kg | 3 µM (≈ 1.31 µg/mL) | – | – | – | 22000 nM |
| Cc1csc(NC(=O)c2cc(Sc3nccn3C)c(F)cc2N)n1 | – | – | 66 nM | – | – | – | – | – | – |
| Cc1cc2c(Oc3cnc(C(=O)N4CC(C)(O)C4)cn3)cc(C(=O)Nc3cnccn3)cc2o1 | – | 9 ×10⁻⁶ cm/s | > 5000 nM | < 8 mL/min/kg | 137 µM (≈ 63.1 µg/mL) | – | – | 10% | – |
| Cc1cnc(NC(=O)c2cc(Oc3ccc(C#N)cc3)c3cc(C)oc3c2)cn1 | – | 1.5 ×10⁻⁶ cm/s | 3060 nM | 29 mL/min/kg | 2 µM (≈ 0.769 µg/mL) | – | – | – | 4000 nM |
| Cc1cc2c(Oc3cnc(C(=O)N(C)C)cn3)cc(C(=O)Nc3ncccn3)cc2o1 | – | – | > 100000 nM | – | – | – | – | 4% | – |
| Cc1cc2c(Oc3cnc(C(=O)N(C)C)cn3)cc(C(=O)Nc3cnccn3)cc2o1 | – | 30 ×10⁻⁶ cm/s | 391 nM | 15 mL/min/kg | 30 µM (≈ 12.6 µg/mL) | – | – | 60% | – |
| Cc1cc2c(Oc3cnc(C(=O)N4CC(C)C4)cn3)cc(C(=O)Nc3cnccn3)cc2o1 | – | 14.9 ×10⁻⁶ cm/s | 393 nM | < 9.6 mL/min/kg | 49 µM (≈ 21.8 µg/mL) | – | – | 11% | – |
| COc1ccc2nc(NC(=O)[C@H](CC3CCCC3)c3ccc(S(=O)(=O)N4CCN(C)CC4)cc3)sc2n1 | 390 nM | – | 122 nM | – | – | < 4 | – | – | – |
| Cc1cnc(NC(=O)c2cc(Oc3cnc(C(=O)N4CCC4)cn3)c3cc(C)oc3c2)cn1 | – | 17.4 ×10⁻⁶ cm/s | 85 nM | < 9.3 mL/min/kg | 10 µM (≈ 4.44 µg/mL) | – | – | 4% | – |
| Cc1ccc(NC(=O)c2cc(Oc3cnc(C(=O)N(C)C)cn3)c3cc(C)oc3c2)nc1 | – | 21.5 ×10⁻⁶ cm/s | 477 nM | < 10.6 mL/min/kg | 215 µM (≈ 92.8 µg/mL) | – | – | 2% | – |
| Cc1ccc(Oc2cc(C(=O)Nc3cnc(C)cn3)cc3oc(C)cc23)cc1 | – | 0.3 ×10⁻⁶ cm/s | 6610 nM | 47 mL/min/kg | 18 µM (≈ 6.72 µg/mL) | – | – | – | – |
| COC1CN(C(=O)c2cnc(Oc3cc(C(=O)Nc4cnccn4)cc4oc(C)cc34)cn2)C1 | – | 21.8 ×10⁻⁶ cm/s | > 5000 nM | < 9.2 mL/min/kg | 158 µM (≈ 72.8 µg/mL) | – | – | 38% | – |
| Cc1cnc(NC(=O)c2cc(Oc3cnc(C(=O)N(C)C)cn3)c3cc(C)oc3c2)cn1 | – | – | – | < 8.5 mL/min/kg | 176 µM (≈ 76.1 µg/mL) | – | – | – | – |
| CCN(C)C(=O)c1cnc(Oc2cc(C(=O)Nc3cnc(C)cn3)cc3oc(C)cc23)cn1 | – | 24.1 ×10⁻⁶ cm/s | 153 nM | < 8 mL/min/kg | 344 µM (≈ 154 µg/mL) | – | – | 6% | – |
| CCc1cnc(NC(=O)c2cc(Oc3cnc(C(=O)N(C)C)cn3)c3cc(C)oc3c2)cn1 | – | 23.7 ×10⁻⁶ cm/s | 254 nM | 12.2 mL/min/kg | 117 µM (≈ 52.2 µg/mL) | – | – | – | – |
| Cc1cnc(NC(=O)c2cc(Oc3cnc(C(=O)N4CCCC4)cn3)c3cc(C)oc3c2)cn1 | – | 15.8 ×10⁻⁶ cm/s | 64 nM | < 8.1 mL/min/kg | 4.5 µM (≈ 2.06 µg/mL) | – | – | 6% | – |

Further lines, with some results ahead:

| EC50 (Hexokinase-4 [1]) | Papp [2] | EC50 (Hexokinase-4 [3]) | CLint scaled [4] | solubility kinetic [5] | Ratio EC50 [7] | Structure (SMILES) | Activity (Rattus norvegicus) | inhibition at 10 µM (hERG (KCNH2)) | IC50 [6] |
| --- | --- | --- | --- | --- | --- | --- | --- | --- | --- |
| 100 nM | – | – | – | – | – | CS(=O)(=O)c1ccc([C@@H](C[C@H]2CCC(=O)C2)C(=O)Nc2cnccn2)cc1Cl [PIRAGLIATIN] | Active | – | – |
| – | 7.7 ×10⁻⁶ cm/s | 705 nM | 21.2 mL/min/kg | 78 µM (≈ 35.8 µg/mL) | – | Cc1cc2c(Oc3cnc(C(=O)N4CC(C)(C)C4)cn3)cc(C(=O)Nc3cnccn3)cc2o1 | – | – | – |
| – | 34.7 ×10⁻⁶ cm/s | > 20 nM | < 8 mL/min/kg | 485 µM (≈ 210 µg/mL) | – | Cc1cnc(NC(=O)c2cc(Oc3ncc(C(=O)N(C)C)cn3)c3cc(C)oc3c2)cn1 | – | 0% | – |
| – | 28.5 ×10⁻⁶ cm/s | 480 nM | 11.6 mL/min/kg | 418 µM (≈ 180 µg/mL) | – | Cc1cnc(NC(=O)c2cc(Oc3ccc(C(=O)N(C)C)nc3)c3cc(C)oc3c2)cn1 | – | 5% | – |
| 187 nM | – | 88 nM | – | – | < 4 | COCc1ccc(Oc2cc3[nH]c(-c4ccccn4)nc3cc2[C@H]2CCCN2C(C)=O)cn1 | – | – | – |
| – | 15.8 ×10⁻⁶ cm/s | 127 nM | < 8 mL/min/kg | 25 µM (≈ 11.2 µg/mL) | – | COc1cnc(NC(=O)c2cc(Oc3cnc(C(=O)N(C)C)cn3)c3cc(C)oc3c2)cn1 | – | 6% | – |
| – | 13.3 ×10⁻⁶ cm/s | 261 nM | 18.2 mL/min/kg | 24 µM (≈ 11.3 µg/mL) | – | Cc1cnc(NC(=O)c2cc(Oc3cnc(C(=O)N4CCCCC4)cn3)c3cc(C)oc3c2)cn1 | – | 5% | – |
| – | 5.9 ×10⁻⁶ cm/s | 92 nM | 17 mL/min/kg | – | – | Cc1cnc(NC(=O)c2cc(Oc3ccc(C(=O)N(C)C)cc3)c3cc(C)oc3c2)cn1 | – | – | – |
| – | 19.9 ×10⁻⁶ cm/s | 2170 nM | 12.9 mL/min/kg | 43 µM (≈ 20.3 µg/mL) | – | Cc1cc2c(Oc3cnc(C(=O)N4CC5(COC5)C4)cn3)cc(C(=O)Nc3cnccn3)cc2o1 | – | – | – |
| – | 9.7 ×10⁻⁶ cm/s | 167 nM | 16.1 mL/min/kg | 6 µM (≈ 2.92 µg/mL) | – | Cc1cc2c(Oc3cnc(C(=O)N(C)C)cn3)cc(C(=O)Nc3cnc(C(F)(F)F)cn3)cc2o1 | – | 18% | – |
